# From patent US20230049952A1, “METHODS AND COMPOUNDS FOR RESTORING MUTANT P53 FUNCTION” (PMV Pharmaceuticals, Inc., priority 2020, published 2023)
# Where “and” joins values, the source holds several entries; their conditions need not be identical. Equal entries are not always repeated.
# Experiment: Compound 2 and metabolites in rat plasma, 50 mg/kg PO QD×10
# Format: in vivo
# Conditions: for Average Concentration: rat plasma
# Experimental: The proposed metabolite pathway was determined in vitro, and levels of potential metabolites were measured by LC/MS-MS in rat plasma remaining from the dose rising 10-day repeat dose study in rats. Six potential metabolites were quantified in the low (50 mg/kg) single dose rats. […] Rats were rotated between timepoints to form a composite PK curve. […] A 100 μL aliquot of the supernatant was transferred to the sample plate and mixed with 100 μL of water, then the plate was shaken at 800 rpm for 10 min. 0.5-2 μL supernatant was then injected into a Triple Quad 6500+ for LC-MS/MS analysis. The standard curve was generated at 1-3000 ng/mL for the compounds in rat plasma (EDTA-K2).
# The male and female PK parameters were averaged together since there was <2-fold variation between the genders. All values deemed below the level of quantification (BLQ) were excluded from the PK parameters calculations.
# [1] = Compound 2 50 mg/kg PO QD×1, 1 h, 50 mg/kg
# [2] = Compound 2 50 mg/kg PO QD×1, 2 h, 50 mg/kg
# [3] = Compound 2 50 mg/kg PO QD×1, 4 h, 50 mg/kg
# [4] = Compound 2 50 mg/kg PO QD×1, 8 h, 50 mg/kg
# [5] = Compound 2 50 mg/kg PO QD×10, 1 h post tenth dose, 50 mg/kg
# [6] = Compound 2 50 mg/kg PO QD×10, 2 h post tenth dose, 50 mg/kg
# [7] = Compound 2 50 mg/kg PO QD×10, 4 h post tenth dose, 50 mg/kg
# [8] = Compound 2 50 mg/kg PO QD×10, 8 h post tenth dose, 50 mg/kg
# [9] = Compound 2 50 mg/kg PO QD×10, 24 h post tenth dose, 50 mg/kg
# [10] = Day 1, of Compound 2 AUC0-24, rat, 50 mg/kg PO
# [11] = Day 1, rat, Compound 2 50 mg/kg PO
# [12] = Day 10, of Compound 2 AUC0-last, rat, 50 mg/kg PO QD×10
# [13] = Day 10, rat, Compound 2 50 mg/kg PO QD×10
# [14] = after single (first) 50 mg/kg PO dose of Compound 2
# [15] = Compound 2 50 mg/kg PO QD×1, 1 h
# [16] = Compound 2 50 mg/kg PO QD×1, 2 h
# [17] = Compound 2 50 mg/kg PO QD×1, 4 h
# [18] = Compound 2 50 mg/kg PO QD×1, 8 h
# [19] = Compound 2 50 mg/kg PO QD×1, 24 h
# [20] = Compound 2 50 mg/kg PO QD×10, 1 h post tenth dose
# [21] = Compound 2 50 mg/kg PO QD×10, 2 h post tenth dose
# [22] = Compound 2 50 mg/kg PO QD×10, 4 h post tenth dose
# [23] = Compound 2 50 mg/kg PO QD×10, 8 h post tenth dose
# [24] = Compound 2 50 mg/kg PO QD×10, 24 h post tenth dose
# [25] = Compound 2 50 mg/kg PO QD×10, 48 h post tenth dose
# [26] = Compound 2 50 mg/kg PO QD×10, 72 h post tenth dose
# [27] = Compound 2 50 mg/kg PO QD×10, 96 h post tenth dose
# [28] = repeat 10 day administration of Compound 2, 50 mg/kg PO
smiles,measurement,setting,value
"CCn1c(C#CCNc2ccc(F)cc2)cc2cc(CNC)ccc21 [Compound 5, 3-{1-Ethyl-5-[(methylamino)methyl]-1H-indol-2-yl}-1-(p-fluorophenylamino)-2-propyne]",calculated concentration in rat plasma (individual rats),[1],576 ng/mL and 407 ng/mL and 342 ng/mL and 649 ng/mL and 486 ng/mL and 311 ng/mL
same,calculated concentration in rat plasma (individual rats),[2],1050 ng/mL and 561 ng/mL and 617 ng/mL and 665 ng/mL and 630 ng/mL and 572 ng/mL
same,calculated concentration in rat plasma (individual rats),[3],732 ng/mL and 850 ng/mL and 1120 ng/mL and 738 ng/mL and 774 ng/mL and 861 ng/mL
same,calculated concentration in rat plasma (individual rats),[4],941 ng/mL and 742 ng/mL and 901 ng/mL and 752 ng/mL and 872 ng/mL and 696 ng/mL
same,calculated concentration in rat plasma (individual rats),"Compound 2 50 mg/kg PO QD×1, 24 h, 50 mg/kg",218 ng/mL and 144 ng/mL and 208 ng/mL and 266 ng/mL and 246 ng/mL and 151 ng/mL
same,calculated concentration in rat plasma (individual rats),[5],532 ng/mL and 434 ng/mL and 580 ng/mL and 539 ng/mL and 753 ng/mL and 738 ng/mL
same,calculated concentration in rat plasma (individual rats),[6],513 ng/mL and 639 ng/mL and 761 ng/mL and 625 ng/mL and 671 ng/mL and 616 ng/mL
same,calculated concentration in rat plasma (individual rats),[7],789 ng/mL and 675 ng/mL and 859 ng/mL and 1010 ng/mL and 887 ng/mL and 701 ng/mL
same,calculated concentration in rat plasma (individual rats),[8],619 ng/mL and 737 ng/mL and 807 ng/mL and 812 ng/mL and 881 ng/mL and 772 ng/mL
same,calculated concentration in rat plasma (individual rats),[9],216 ng/mL and 376 ng/mL and 234 ng/mL and 486 ng/mL and 477 ng/mL and 484 ng/mL
same,calculated concentration in rat plasma (individual rats),"Compound 2 50 mg/kg PO QD×10, 48 h post tenth dose, 50 mg/kg",6.57 ng/mL and 22.4 ng/mL and 13.6 ng/mL and 55.0 ng/mL and 27.3 ng/mL and 31.2 ng/mL
same,calculated concentration in rat plasma (individual rats),"Compound 2 50 mg/kg PO QD×10, 72 h post tenth dose, 50 mg/kg",3.25 ng/mL and 2.30 ng/mL and BLQ (3×) and 17.3 ng/mL
same,calculated concentration in rat plasma (individual rats),"Compound 2 50 mg/kg PO QD×10, 96 h post tenth dose, 50 mg/kg",BLQ (5×) and 1.27 ng/mL
same,% of Parent,[10],17.6%
same,AUC0-24,[11],13840 ng·h/mL
same,% of Parent,[12],18.1%
same,AUC0-last,[13],19943 ng·h/mL
same,AUC0-24,[14],"13,840 ng·h/mL"
same,percent of the parent Compound 2 AUC0-24,[14],17.6%
same,Average Concentration,[15],461.83 ng/mL
same,Average Concentration,[16],682.50 ng/mL
same,Average Concentration,[17],845.83 ng/mL
same,Average Concentration,[18],817.33 ng/mL
same,Average Concentration,[19],205.50 ng/mL
same,Average Concentration,[20],596.00 ng/mL
same,Average Concentration,[21],637.50 ng/mL
same,Average Concentration,[22],820.17 ng/mL
same,Average Concentration,[23],771.33 ng/mL
same,Average Concentration,[24],378.83 ng/mL
same,Average Concentration,[25],26.01 ng/mL
same,Average Concentration,[26],7.62 ng/mL
same,Average Concentration,[27],1.27 ng/mL
same,AUC0-last,[28],"19,943 ng·h/mL"
same,percent of parent AUC0-last,[28],18.1%
"CCn1c(C#CCNc2ccc(Cl)cc2)cc2cc(CNC3CCN(C)CC3)ccc21 [Compound 7, 1-(p-Chlorophenylamino)-3-{1-ethyl-5-[(1-methyl-4-piperidylamino)methyl]-1H-indol-2-yl}-2-propyne]",calculated concentration in rat plasma (individual rats),[1],1.44 ng/mL and 1.36 ng/mL and 1.19 ng/mL and 1.33 ng/mL and 1.49 ng/mL and 1.39 ng/mL
same,calculated concentration in rat plasma (individual rats),[2],4.12 ng/mL and 1.95 ng/mL and 1.67 ng/mL and 1.93 ng/mL and 1.81 ng/mL and 1.70 ng/mL
same,calculated concentration in rat plasma (individual rats),[3],2.46 ng/mL and 2.66 ng/mL and 2.27 ng/mL and 1.68 ng/mL and 1.81 ng/mL and 2.04 ng/mL
same,calculated concentration in rat plasma (individual rats),[4],3.52 ng/mL and 2.72 ng/mL and 2.19 ng/mL and 2.24 ng/mL and 2.20 ng/mL and 2.11 ng/mL
same,calculated concentration in rat plasma (individual rats),[19],BLQ
same,calculated concentration in rat plasma (individual rats),[5],1.25 ng/mL and 1.46 ng/mL and 1.42 ng/mL and 1.49 ng/mL and 1.92 ng/mL and 1.65 ng/mL
same,calculated concentration in rat plasma (individual rats),[6],1.81 ng/mL and 2.19 ng/mL and 1.99 ng/mL and 1.41 ng/mL and 1.79 ng/mL and 1.66 ng/mL
same,calculated concentration in rat plasma (individual rats),[7],2.46 ng/mL and 2.18 ng/mL and 2.20 ng/mL and 2.42 ng/mL and 2.00 ng/mL and 1.30 ng/mL
same,calculated concentration in rat plasma (individual rats),[8],2.31 ng/mL and 2.45 ng/mL and 2.79 ng/mL and 1.81 ng/mL and 2.20 ng/mL and 2.21 ng/mL
same,calculated concentration in rat plasma (individual rats),[9],BLQ (3×) and 1.07 ng/mL and 1.06 ng/mL and 1.16 ng/mL
same,calculated concentration in rat plasma (individual rats),[25],BLQ
same,calculated concentration in rat plasma (individual rats),[26],BLQ
same,calculated concentration in rat plasma (individual rats),[27],BLQ
same,% of Parent,[10],0.0%
same,AUC0-24,[11],16 ng·h/mL
same,% of Parent,[12],0.0%
same,AUC0-last,[13],28 ng·h/mL
same,Average Concentration,[15],1.37 ng/mL
same,Average Concentration,[16],2.20 ng/mL
same,Average Concentration,[17],2.15 ng/mL
same,Average Concentration,[18],2.50 ng/mL
same,Average Concentration,[19],BLQ
same,Average Concentration,[20],1.53 ng/mL
same,Average Concentration,[21],1.81 ng/mL
same,Average Concentration,[22],2.09 ng/mL
same,Average Concentration,[23],2.30 ng/mL
same,Average Concentration,[24],1.10 ng/mL
same,Average Concentration,[25],BLQ
same,Average Concentration,[26],BLQ
same,Average Concentration,[27],BLQ
